What follows are compounds tested against T1, human neutrophil elastase (HNE) (Homo sapiens, UniProt P08246) (assay: HNE enzyme assay (fluorogenic peptide substrate MeOSuc-Ala-Ala-Pro-Val-AMC)). Details: human leukocyte elastase, substrate 100 μM, 25° C., 30 minutes, at least two separate experiments; read-out: HNE inhibition (IC50 values).
T1 construct: purchased Sigma E8140
T1 sequence (P08246 30-267): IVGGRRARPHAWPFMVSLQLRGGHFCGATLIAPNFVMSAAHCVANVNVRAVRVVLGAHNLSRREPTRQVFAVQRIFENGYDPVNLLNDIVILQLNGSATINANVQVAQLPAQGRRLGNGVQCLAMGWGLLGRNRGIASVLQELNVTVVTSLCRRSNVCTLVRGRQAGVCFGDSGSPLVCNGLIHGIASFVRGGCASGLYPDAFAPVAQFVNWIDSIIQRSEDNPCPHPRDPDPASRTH
Type: biochemical
Method: Compounds of this invention were tested for potency in a human neutrophil elastase (HNE) enzyme activity assay.
Assays were performed in 96-well plates in a total assay volume of 100 μl. The final concentration of elastase enzyme (human leukocyte elastase, Sigma E8140) was 0.0036 units/well […]. The peptide substrate (MeOSuc-Ala-Ala-Pro-Val-AMC, Calbiochem #324740) was used at a final concentration of 100 μM. The final concentration of DMSO was 1% in the assay buffer (0.05M Tris.HCl, 0.1M NaCl, 0.1M CaCl2, 0.0005% brij-35, pH 7.5). The enzymatic reaction was started by addition of the enzyme and incubated at 25° C. for 30 minutes. After incubation, the reaction was stopped by addition of soybean trypsin inhibitor (Sigma T9003) at a final concentration of 50 μg/well. Fluorescence was measured using a Molecular Devices fluorescence plate reader using 380 nm excitation and 460 nm emission wavelengths.
A dose response to each compound was performed, and the effect of the compound in each experiment was expressed as a percentage inhibition of the control enzyme fluorescence. Dose response curves were plotted and compound potency (IC50) was determined. Compounds were tested in at least two separate experiments.

Compound	IC50 [nM]
COC(=O)C1=C(C)N(c2cccc(C(F)(F)F)c2)c2nn(CC(=O)N(C)CCC[N+](C)(C)C)c(=O)n2C1c1ccc(C#N)cc1 (stereo not drawn) [Example 28, [3-({2-[5-(4-Cyano-phenyl)-6-methoxycarbonyl-7-methyl-3-oxo-8-(3-trifluoromethyl-phenyl)-5,8-dihydro-[1,2,4]triazolo[4,3-a]pyrimidin-2-yl]-acetyl}-methyl-amino)propyl]-trimethyl-ammonium; bromide]	< 20
COC(=O)C1=C(C)N(c2cccc(C(F)(F)F)c2)c2nn(CC(=O)N(C)CCCCN(C)C)c(=O)n2C1c1ccc(C#N)cc1 (stereo not drawn) [Example 29, 5-(4-Cyano-phenyl)-2-{[(4-dimethylamino-butyl)-methyl-carbamoyl]-methyl}-7-methyl-3-oxo-8-(3-trifluoromethyl-phenyl)-2,3,5,8-tetrahydro-[1,2,4]triazolo[4,3-a]pyrimidine-6-carboxylic acid methyl ester]	< 20
COC(=O)C1=C(C)N(c2cccc(C(F)(F)F)c2)c2nn(CC(=O)N(C)CCCCCN(C)C)c(=O)n2C1c1ccc(C#N)cc1 (stereo not drawn) [Example 30, 5-(4-Cyano-phenyl)-2-{[(5-dimethylamino-pentyl)-methyl-carbamoyl]-methyl}-7-methyl-3-oxo-8-(3-trifluoromethyl-phenyl)-2,3,5,8-tetrahydro-[1,2,4]triazolo[4,3-a]pyrimidine-6-carboxylic acid methyl ester]	< 20
COC(=O)C1=C(C)N(c2cccc(C(F)(F)F)c2)c2nn(CC(=O)N(C)CCCC[N+](C)(C)C)c(=O)n2C1c1ccc(C#N)cc1 (stereo not drawn) [Example 31, [4-({2-[5-(4-Cyano-phenyl)-6-methoxycarbonyl-7-methyl-3-oxo-8-(3-trifluoromethyl-phenyl)-5,8-dihydro-[1,2,4]triazolo[4,3-a]pyrimidin-2-yl]-acetyl}-methyl-amino)-butyl]-trimethylammonium bromide]	< 20
COC(=O)C1=C(C)N(c2cccc(C(F)(F)F)c2)c2nn(CC(=O)N(C)CCCCC[N+](C)(C)C)c(=O)n2C1c1ccc(C#N)cc1 (stereo not drawn) [Example 32, [5-({2-[5-(4-Cyano-phenyl)-6-methoxycarbonyl-7-methyl-3-oxo-8-(3-trifluoromethyl-phenyl)-5,8-dihydro-[1,2,4]triazolo[4,3-a]pyrimidin-2-yl]-acetyl}-methyl-amino)pentyl]-trimethyl-ammonium; bromide]	< 20
COC(=O)C1=C(C)N(c2cccc(C(F)(F)F)c2)c2nn(CC(=O)N(C)CCCCCN(C)C)c(=O)n2[C@@H]1c1ccc(C#N)cc1 [Example 33, (R)-5-(4-Cyano-phenyl)-2-{[(5-dimethylamino-pentyl)-methyl-carbamoyl]-methyl}-7-methyl-3-oxo-8-(3-trifluoromethyl-phenyl)-2,3,5,8-tetrahydro-[1,2,4]triazolo[4,3-a]pyrimidine-6-carboxylic acid methyl ester]	< 20
COC(=O)C1=C(C)N(c2cccc(C(F)(F)F)c2)c2nn(CC(=O)N(C)CCCCC[N+](C)(C)C)c(=O)n2[C@@H]1c1ccc(C#N)cc1 [Example 34, (R)-[5-({2-[5-(4-Cyano-phenyl)-6-methoxycarbonyl-7-methyl-3-oxo-8-(3-trifluoromethyl-phenyl)-5,8-dihydro-[1,2,4]triazolo[4,3-a]pyrimidin-2-yl]-acetyl}-methyl-amino)pentyl]-trimethyl-ammonium chloride]	< 20
COC(=O)C1=C(C)N(c2cccc(C(F)(F)F)c2)c2nn(CCCN(C)C(C)=O)c(=O)n2C1c1ccc(C#N)cc1 (stereo not drawn) [Example 35, 2-[3-(Acetyl-methyl-amino)-propyl]-5-(4-cyano-phenyl)-7-methyl-3-oxo-8-(3-trifluoromethylphenyl)-2,3,5,8-tetrahydro-[1,2,4]triazolo[4,3-a]pyrimidine-6-carboxylic acidmethyl ester]	< 20
COC(=O)C1=C(C)N(c2cccc(C(F)(F)F)c2)c2nn(CCCN(C)S(C)(=O)=O)c(=O)n2C1c1ccc(C#N)cc1 (stereo not drawn) [Example 36, 5-(4-Cyano-phenyl)-2-[3-(methanesulfonyl-methyl-amino)-propyl]-7-methyl-3-oxo-8-(3-trifluoromethyl-phenyl)-2,3,5,8-tetrahydro-[1,2,4]triazolo[4,3-a]pyrimidine-6-carboxylic acidmethyl ester]	< 20
COC(=O)C1=C(C)N(c2cccc(C(F)(F)F)c2)c2nn(CCCS(=O)(=O)CCC[N+](C)(C)C)c(=O)n2C1c1ccc(C#N)cc1 (stereo not drawn) [Example 37, (3-{3-[5-(4-Cyano-phenyl)-6-methoxycarbonyl-7-methyl-3-oxo-8-(3-trifluoromethyl-phenyl)-5,8-dihydro-[1,2,4]triazolo[4,3-a]pyrimidin-2-yl]-propane-1-sulfonyl}-propyl)-trimethylammonium toluene-4-sulfonate]	< 20
COC(=O)C1=C(C)N(c2cccc(C(F)(F)F)c2)c2nn(CCCS(=O)(=O)CCC[N+](C)(C)C)c(=O)n2[C@@H]1c1ccc(C#N)cc1 [Example 38, (R)-(3-{3-[5-(4-Cyano-phenyl)-6-methoxycarbonyl-7-methyl-3-oxo-8-(3-trifluoromethyl-phenyl)-5,8-dihydro-[1,2,4]triazolo[4,3-a]pyrimidin-2-yl]-propane-1-sulfonyl}-propyl)-trimethylammonium chloride]	< 20
CC1=C(C#N)C(c2ccc(C#N)cc2)n2c(nn(CCCS(=O)(=O)CCC[N+](C)(C)C)c2=O)N1c1cccc(C(F)(F)F)c1 (stereo not drawn) [Example 39, (3-{3-[6-Cyano-5-(4-cyano-phenyl)-7-methyl-3-oxo-8-(3-trifluoromethyl-phenyl)-5,8-dihydro-[1,2,4]triazolo[4,3-a]pyrimidin-2-yl]-propane-1-sulfonyl}-propyl)-trimethylammonium toluene-4-sulfonate]	< 20

Continued, values first:

IC50 [nM]	Compound
< 20	COC(=O)C1=C(C)N(c2cccc(C(F)(F)F)c2)c2nn(Cc3ccc(C[N+](C)(C)C)cc3)c(=O)n2C1c1ccc(C#N)cc1 (stereo not drawn) [Example 22, {4-[5-(4-Cyano-phenyl)-6-methoxycarbonyl-7-methyl-3-oxo-8-(3-trifluoromethyl-phenyl)-5,8-dihydro-[1,2,4]triazolo[4,3-a]pyrimidin-2-ylmethyl]-benzyl}-trimethyl-ammonium bromide]
< 20	COC(=O)C1=C(C)N(c2cccc(C(F)(F)F)c2)c2nn(Cc3ccc(S(C)(=O)=O)cn3)c(=O)n2C1c1ccc(C#N)cc1 (stereo not drawn) [Example 23, 5-(4-Cyano-phenyl)-2-(5-methanesulfonyl-pyridin-2-ylmethyl)-7-methyl-3-oxo-8-(3-trifluoromethyl-phenyl)-2,3,5,8-tetrahydro-[1,2,4]triazolo[4,3-a]pyrimidine-6-carboxylic acid methyl ester]
< 20	COC(=O)C1=C(C)N(c2cccc(C(F)(F)F)c2)c2nn(CCCN3CCCC3=O)c(=O)n2C1c1ccc(C#N)cc1 (stereo not drawn) [Example 24, 5-(4-Cyano-phenyl)-7-methyl-3-oxo-2-[3-(2-oxo-pyrrolidin-1-yl)-propyl]-8-(3-trifluoromethyl-phenyl)-2,3,5,8-tetrahydro-[1,2,4]triazolo[4,3-a]pyrimidine-6-carboxylic acid methyl ester]
< 20	COC(=O)C1=C(C)N(c2cccc(C(F)(F)F)c2)c2nn(CC(=O)N(C)CCN(C)C)c(=O)n2C1c1ccc(C#N)cc1 (stereo not drawn) [Example 25, 5-(4-Cyano-phenyl)-2-{[(2-dimethylamino-ethyl)-methyl-carbamoyl]-methyl}-7-methyl-3-oxo-8-(3-trifluoromethyl-phenyl)-2,3,5,8-tetrahydro-[1,2,4]triazolo[4,3-a]pyrimidine-6-carboxylic acid methyl ester]
< 20	COC(=O)C1=C(C)N(c2cccc(C(F)(F)F)c2)c2nn(CC(=O)N(C)CCCN(C)C)c(=O)n2C1c1ccc(C#N)cc1 (stereo not drawn) [Example 26, 5-(4-Cyano-phenyl)-2-{[(3-dimethylamino-propyl)-methyl-carbamoyl]-methyl}-7-methyl-3-oxo-8-(3-trifluoromethyl-phenyl)-2,3,5,8-tetrahydro-[1,2,4]triazolo[4,3-a]pyrimidine-6-carboxylic acid methyl ester]
< 20	COC(=O)C1=C(C)N(c2cccc(C(F)(F)F)c2)c2nn(CC(=O)N(C)CC[N+](C)(C)C)c(=O)n2C1c1ccc(C#N)cc1 (stereo not drawn) [Example 27, [2-({2-[5-(4-Cyano-phenyl)-6-methoxycarbonyl-7-methyl-3-oxo-8-(3-trifluoromethyl-phenyl)-5,8-dihydro-[1,2,4]triazolo[4,3-a]pyrimidin-2-yl]-acetyl}-methyl-amino)-ethyl]trimethyl-ammonium bromide]
